# Source: paper PMC7714403 (JCI Insight, 2020)
# Like-named read-outs stand apart in the source and are kept apart here.
# Assays:
# Assay in all cases: KiNativ, MOLM13 live cells
# Assay type in all cases: cell-based
# [1] = molecular target: PIK3CG (Homo sapiens, UniProt P48736); conditions: MOLM-13; 100 nM, 2 hours; ATP; read-out: Inhibition vs DMSO
# Experimental: (§1) Samples were analyzed by KiNativ in situ kinase profiling by ActivX Biosciences.
# [2] = molecular target: PI4KB (Homo sapiens, UniProt Q9UBF8); conditions: MOLM-13, 2 h, 100 nM, ATP, read-out: Inhibition vs DMSO
# Chain of PI4KB (Q9UBF8 whole entry): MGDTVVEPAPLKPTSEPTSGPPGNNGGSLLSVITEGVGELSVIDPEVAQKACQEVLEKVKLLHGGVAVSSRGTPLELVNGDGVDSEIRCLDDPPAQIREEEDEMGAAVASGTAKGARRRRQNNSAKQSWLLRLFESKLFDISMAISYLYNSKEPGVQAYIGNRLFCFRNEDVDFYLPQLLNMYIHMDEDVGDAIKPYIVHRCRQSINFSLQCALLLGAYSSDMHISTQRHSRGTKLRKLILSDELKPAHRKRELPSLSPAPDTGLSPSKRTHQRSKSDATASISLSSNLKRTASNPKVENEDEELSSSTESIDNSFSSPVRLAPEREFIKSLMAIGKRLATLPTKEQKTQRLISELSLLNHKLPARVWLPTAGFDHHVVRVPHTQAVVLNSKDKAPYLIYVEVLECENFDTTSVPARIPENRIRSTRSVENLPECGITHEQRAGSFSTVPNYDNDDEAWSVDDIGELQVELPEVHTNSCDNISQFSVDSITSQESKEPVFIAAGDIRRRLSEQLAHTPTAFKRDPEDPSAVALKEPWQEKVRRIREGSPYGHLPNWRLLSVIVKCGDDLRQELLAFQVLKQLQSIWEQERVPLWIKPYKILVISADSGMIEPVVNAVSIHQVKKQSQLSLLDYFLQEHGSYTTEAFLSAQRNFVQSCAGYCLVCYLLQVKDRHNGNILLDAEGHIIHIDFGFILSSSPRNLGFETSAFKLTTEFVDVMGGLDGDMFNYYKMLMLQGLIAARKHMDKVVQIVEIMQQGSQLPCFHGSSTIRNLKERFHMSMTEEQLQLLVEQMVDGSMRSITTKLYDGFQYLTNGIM
# Experimental: as §1
# [3] = molecular target: PIK3CB (Homo sapiens, UniProt P42338); conditions: MOLM-13; 100 nM, 2 hours; ATP; read-out: Inhibition vs DMSO
# Chain of PIK3CB (P42338 whole entry): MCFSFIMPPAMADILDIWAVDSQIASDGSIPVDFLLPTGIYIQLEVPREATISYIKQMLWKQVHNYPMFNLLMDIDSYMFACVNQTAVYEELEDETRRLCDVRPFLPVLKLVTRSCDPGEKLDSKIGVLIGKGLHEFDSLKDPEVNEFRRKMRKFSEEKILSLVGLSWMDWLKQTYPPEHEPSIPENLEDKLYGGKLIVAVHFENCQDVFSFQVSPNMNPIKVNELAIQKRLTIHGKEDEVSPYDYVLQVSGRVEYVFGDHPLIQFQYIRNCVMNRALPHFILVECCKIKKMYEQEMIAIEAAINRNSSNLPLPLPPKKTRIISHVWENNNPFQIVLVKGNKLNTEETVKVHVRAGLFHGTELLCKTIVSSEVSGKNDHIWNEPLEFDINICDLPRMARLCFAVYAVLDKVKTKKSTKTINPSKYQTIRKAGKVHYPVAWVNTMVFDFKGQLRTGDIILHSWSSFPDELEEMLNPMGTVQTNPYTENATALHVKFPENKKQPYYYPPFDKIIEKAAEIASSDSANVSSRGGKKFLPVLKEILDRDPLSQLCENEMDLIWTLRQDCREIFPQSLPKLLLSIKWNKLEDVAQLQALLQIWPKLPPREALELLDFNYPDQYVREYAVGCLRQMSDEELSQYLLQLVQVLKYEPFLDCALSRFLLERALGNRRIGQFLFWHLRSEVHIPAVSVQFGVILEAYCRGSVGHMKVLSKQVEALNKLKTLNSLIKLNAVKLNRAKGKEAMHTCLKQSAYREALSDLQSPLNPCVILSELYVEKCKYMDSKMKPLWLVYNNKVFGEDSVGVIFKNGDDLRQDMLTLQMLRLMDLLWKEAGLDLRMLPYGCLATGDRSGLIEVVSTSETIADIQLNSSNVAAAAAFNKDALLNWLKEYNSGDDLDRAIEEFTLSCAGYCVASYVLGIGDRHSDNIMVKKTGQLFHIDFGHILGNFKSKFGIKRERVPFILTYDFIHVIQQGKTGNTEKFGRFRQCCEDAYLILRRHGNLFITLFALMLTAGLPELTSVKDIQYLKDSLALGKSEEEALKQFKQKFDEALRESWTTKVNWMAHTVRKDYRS
# Chain of PIK3CB (P27986 whole entry partner): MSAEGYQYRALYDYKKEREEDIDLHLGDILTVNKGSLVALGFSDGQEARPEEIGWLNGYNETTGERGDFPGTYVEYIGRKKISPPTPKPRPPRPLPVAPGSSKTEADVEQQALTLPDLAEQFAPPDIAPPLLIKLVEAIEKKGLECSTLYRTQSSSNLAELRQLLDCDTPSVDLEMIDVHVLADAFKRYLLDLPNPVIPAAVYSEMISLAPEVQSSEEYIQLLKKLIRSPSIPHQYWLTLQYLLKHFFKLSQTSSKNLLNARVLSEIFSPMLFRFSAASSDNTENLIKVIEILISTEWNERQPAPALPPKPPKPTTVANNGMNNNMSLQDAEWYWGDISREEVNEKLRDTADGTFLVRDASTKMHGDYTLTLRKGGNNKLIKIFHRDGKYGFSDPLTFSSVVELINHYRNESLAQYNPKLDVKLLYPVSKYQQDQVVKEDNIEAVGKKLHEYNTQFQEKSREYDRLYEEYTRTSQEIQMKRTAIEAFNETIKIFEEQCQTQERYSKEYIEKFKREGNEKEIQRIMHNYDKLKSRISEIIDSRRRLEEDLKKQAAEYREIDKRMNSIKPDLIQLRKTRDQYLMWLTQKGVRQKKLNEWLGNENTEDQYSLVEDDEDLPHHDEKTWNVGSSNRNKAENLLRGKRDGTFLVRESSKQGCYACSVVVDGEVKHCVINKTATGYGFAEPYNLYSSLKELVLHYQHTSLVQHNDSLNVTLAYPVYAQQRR
# Experimental: as §1
# [4] = molecular target: MLK3 (Homo sapiens, UniProt Q16584); conditions: 100 nM, 2 hours; Lys2
# Experimental: as §1
# [5] = molecular target: MST1 (Homo sapiens, UniProt Q13043); conditions: 100 nM, 2 hours; Lys1
# Experimental: as §1
# [6] = molecular target: MST2 (Homo sapiens, UniProt Q13188); conditions: MOLM-13; 100 nM, 2 hours; Lys1; read-out: Inhibition vs DMSO
# Experimental: as §1
# [7] = molecular target: T1, IRAK3 (Homo sapiens, UniProt Q9Y616); conditions: MOLM-13; 100 nM, 2 hours; Lys1; read-out: Inhibition vs DMSO
# T1 sequence (Q9Y616 1-596): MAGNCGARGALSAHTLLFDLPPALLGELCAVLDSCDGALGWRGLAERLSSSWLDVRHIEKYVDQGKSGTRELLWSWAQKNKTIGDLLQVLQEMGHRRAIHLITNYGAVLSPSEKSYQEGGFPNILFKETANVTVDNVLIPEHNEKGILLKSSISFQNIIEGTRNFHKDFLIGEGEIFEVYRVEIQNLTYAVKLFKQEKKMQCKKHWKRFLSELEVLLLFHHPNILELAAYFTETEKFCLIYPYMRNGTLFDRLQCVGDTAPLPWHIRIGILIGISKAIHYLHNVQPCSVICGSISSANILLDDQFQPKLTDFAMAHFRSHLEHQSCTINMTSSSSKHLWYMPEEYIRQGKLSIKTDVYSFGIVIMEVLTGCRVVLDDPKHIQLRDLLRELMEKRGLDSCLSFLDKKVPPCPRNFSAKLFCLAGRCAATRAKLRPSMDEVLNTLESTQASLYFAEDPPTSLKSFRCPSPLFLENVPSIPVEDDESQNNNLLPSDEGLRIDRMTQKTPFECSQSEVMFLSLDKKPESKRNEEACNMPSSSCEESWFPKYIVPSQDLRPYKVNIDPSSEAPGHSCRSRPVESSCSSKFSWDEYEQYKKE
# Experimental: as §1
# [8] = molecular target: PKR (Homo sapiens, UniProt P19525); conditions: 100 nM, 2 hours
# Chain of PKR (P19525 whole entry): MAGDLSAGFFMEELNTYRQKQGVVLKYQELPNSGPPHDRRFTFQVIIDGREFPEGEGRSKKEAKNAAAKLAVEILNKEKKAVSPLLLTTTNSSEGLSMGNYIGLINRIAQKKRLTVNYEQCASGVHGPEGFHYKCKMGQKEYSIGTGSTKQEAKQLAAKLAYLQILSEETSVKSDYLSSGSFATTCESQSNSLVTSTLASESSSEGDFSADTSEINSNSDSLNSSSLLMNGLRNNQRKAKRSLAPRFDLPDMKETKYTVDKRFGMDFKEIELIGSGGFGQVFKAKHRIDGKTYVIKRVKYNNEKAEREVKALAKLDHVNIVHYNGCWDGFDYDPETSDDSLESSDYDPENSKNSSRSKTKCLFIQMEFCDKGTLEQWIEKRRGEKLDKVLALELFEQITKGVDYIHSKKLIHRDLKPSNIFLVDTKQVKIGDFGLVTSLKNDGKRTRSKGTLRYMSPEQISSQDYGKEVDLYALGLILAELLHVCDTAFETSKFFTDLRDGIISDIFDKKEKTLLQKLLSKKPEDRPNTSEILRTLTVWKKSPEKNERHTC
# Experimental: as §1
# [9] = molecular target: DGKH (Homo sapiens, UniProt Q86XP1); conditions: MOLM-13; 100 nM, 2 hours; ATP; read-out: Inhibition vs DMSO
# Chain of DGKH (Q86XP1 whole entry): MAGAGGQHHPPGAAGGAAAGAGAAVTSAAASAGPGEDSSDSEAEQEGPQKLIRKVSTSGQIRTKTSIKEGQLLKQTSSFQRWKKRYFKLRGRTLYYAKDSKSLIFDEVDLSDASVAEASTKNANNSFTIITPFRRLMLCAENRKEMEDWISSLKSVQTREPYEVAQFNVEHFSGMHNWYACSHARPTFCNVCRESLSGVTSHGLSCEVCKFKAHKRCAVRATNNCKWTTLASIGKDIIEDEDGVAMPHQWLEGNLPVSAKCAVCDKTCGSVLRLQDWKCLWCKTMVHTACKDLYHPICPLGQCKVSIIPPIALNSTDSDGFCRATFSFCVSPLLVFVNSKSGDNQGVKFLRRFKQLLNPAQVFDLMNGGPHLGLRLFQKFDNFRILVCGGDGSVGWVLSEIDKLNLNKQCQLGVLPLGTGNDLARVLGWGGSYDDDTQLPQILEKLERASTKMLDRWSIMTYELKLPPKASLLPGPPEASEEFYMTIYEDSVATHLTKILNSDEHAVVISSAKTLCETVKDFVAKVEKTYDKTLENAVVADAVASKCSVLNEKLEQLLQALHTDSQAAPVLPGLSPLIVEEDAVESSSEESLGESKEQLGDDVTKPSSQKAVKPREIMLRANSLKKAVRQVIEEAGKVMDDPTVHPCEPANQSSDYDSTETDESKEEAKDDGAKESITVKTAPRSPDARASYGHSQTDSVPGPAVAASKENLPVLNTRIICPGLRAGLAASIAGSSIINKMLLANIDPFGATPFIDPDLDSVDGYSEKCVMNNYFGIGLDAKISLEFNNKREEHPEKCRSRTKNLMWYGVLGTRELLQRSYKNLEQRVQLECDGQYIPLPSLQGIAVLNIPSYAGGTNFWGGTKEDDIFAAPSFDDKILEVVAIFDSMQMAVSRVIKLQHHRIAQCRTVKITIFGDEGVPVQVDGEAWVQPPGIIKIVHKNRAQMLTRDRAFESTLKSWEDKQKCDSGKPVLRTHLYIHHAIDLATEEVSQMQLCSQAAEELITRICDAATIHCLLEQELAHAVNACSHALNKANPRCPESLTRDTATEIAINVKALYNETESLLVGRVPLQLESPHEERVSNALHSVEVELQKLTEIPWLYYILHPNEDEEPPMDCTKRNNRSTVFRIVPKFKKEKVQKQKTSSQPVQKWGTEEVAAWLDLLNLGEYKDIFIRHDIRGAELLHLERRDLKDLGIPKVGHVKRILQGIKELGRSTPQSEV
# Experimental: as §1
# [10] = molecular target: TLK2 (Homo sapiens, UniProt Q86UE8); conditions: MOLM-13; 100 nM, 2 hours; Lys2; read-out: Inhibition vs DMSO
# Experimental: as §1
# [11] = molecular target: NEK1 (Homo sapiens, UniProt Q96PY6); conditions: MOLM-13; 100 nM, 2 hours; Lys2; read-out: Inhibition vs DMSO
# Experimental: as §1
# [12] = molecular target: MAP3K2 (Homo sapiens, UniProt Q9Y2U5); conditions: MOLM-13; 100 nM, 2 hours; Lys1; read-out: Inhibition vs DMSO
# Chain of MAP3K2 (Q9Y2U5 whole entry): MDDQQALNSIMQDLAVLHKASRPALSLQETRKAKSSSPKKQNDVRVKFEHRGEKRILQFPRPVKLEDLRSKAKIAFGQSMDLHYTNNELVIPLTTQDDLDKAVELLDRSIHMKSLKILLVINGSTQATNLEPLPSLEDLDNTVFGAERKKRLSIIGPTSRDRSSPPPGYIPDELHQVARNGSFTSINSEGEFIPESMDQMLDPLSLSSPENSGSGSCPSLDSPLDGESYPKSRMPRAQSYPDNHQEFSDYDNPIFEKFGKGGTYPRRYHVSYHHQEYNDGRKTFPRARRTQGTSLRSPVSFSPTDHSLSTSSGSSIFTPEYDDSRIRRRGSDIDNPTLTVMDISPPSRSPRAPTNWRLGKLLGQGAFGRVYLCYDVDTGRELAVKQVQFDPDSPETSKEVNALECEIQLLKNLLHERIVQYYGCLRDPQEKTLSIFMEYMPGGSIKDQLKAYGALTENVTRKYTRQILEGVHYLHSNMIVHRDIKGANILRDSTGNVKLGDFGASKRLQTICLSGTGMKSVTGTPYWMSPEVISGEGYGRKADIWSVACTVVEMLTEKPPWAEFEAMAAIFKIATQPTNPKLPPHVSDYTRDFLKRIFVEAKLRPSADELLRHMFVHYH
# Experimental: as §1
# [13] = molecular target: MAP4K3 (Homo sapiens, UniProt Q8IVH8); conditions: 100 nM, 2 hours; Lys2
# Experimental: as §1
# [14] = molecular target: T2, AurA (Homo sapiens, UniProt O14965); conditions: MOLM-13, 2 h, 100 nM
# T2 sequence (O14965 1-403): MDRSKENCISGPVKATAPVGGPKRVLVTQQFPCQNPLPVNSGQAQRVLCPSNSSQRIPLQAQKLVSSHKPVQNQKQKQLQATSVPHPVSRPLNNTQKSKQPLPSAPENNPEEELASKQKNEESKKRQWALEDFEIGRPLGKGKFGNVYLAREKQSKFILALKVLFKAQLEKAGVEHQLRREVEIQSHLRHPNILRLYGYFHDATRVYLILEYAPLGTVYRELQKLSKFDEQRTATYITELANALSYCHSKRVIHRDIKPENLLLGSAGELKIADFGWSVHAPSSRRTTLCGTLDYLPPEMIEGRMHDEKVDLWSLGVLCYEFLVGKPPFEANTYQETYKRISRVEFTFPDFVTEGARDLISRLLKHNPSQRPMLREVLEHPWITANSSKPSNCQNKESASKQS
# Experimental: as §1
# [15] = molecular target: Erk2 (Homo sapiens, UniProt P28482); conditions: MOLM-13; 100 nM, 2 hours; Lys2; read-out: Inhibition vs DMSO
# Experimental: as §1
# [16] = molecular target: GSK3A (Homo sapiens, UniProt P49840); conditions: MOLM-13; 100 nM, 2 hours; Lys2; read-out: Inhibition vs DMSO
# Experimental: as §1
# [17] = molecular target: T3, RSK2 domain2 (Homo sapiens, UniProt P51812); conditions: MOLM-13; 100 nM, 2 hours; Lys2; read-out: Inhibition vs DMSO
# T3 construct: RSK2 domain2
# Experimental: as §1
smiles,measurement,setting,value
CN1CCN(Cc2ccc(Nc3ncc(Cl)c(Nc4ccccc4S(=O)(=O)N(C)C)n3)cc2)CC1 [TP-0903],inhibition at 0.1 µM,[1],-8.5%
same,inhibition at 0.1 µM,[2]; LLSVIVKCGDDLRQELLAFQVLK,-5.9%
same,inhibition at 0.1 µM,[2]; VPHTQAVVLNSKDK,-12.3%
same,inhibition at 0.1 µM,[3],-0.9%
same,Inhibition vs DMSO,[4],20.5%
same,Inhibition vs DMSO,[5],42.4%
same,inhibition at 0.1 µM,[6],7.5%
same,inhibition at 0.1 µM,[7],92.5%
same,Inhibition vs DMSO,[8]; Activation Loop,-7.5%
same,Inhibition vs DMSO,[8]; Lys1,-21.9%
same,Inhibition vs DMSO,[8]; Lys2,-21.6%
same,inhibition at 0.1 µM,[9],-1.3%
same,inhibition at 0.1 µM,[10],18%
same,inhibition at 0.1 µM,[11],-21.7%
same,inhibition at 0.1 µM,[12],-7.5%
same,Inhibition vs DMSO,[13],45.4%
same,inhibition at 0.1 µM,"[14]; Lys1, read-out: Inhibition vs DMSO",58.2%
same,inhibition at 0.1 µM,"[14]; Lys2, read-out: Inhibition vs DMSO",59.4%
same,inhibition at 0.1 µM,[15],-9.4%
same,inhibition at 0.1 µM,[16],-8.9%
same,inhibition at 0.1 µM,[17],-47.6%
